According to article PMC7699524, “Assessing the Intestinal Permeability and Anti-Inflammatory Potential of Sesquiterpene Lactones from Chicory” (Nutrients, 2020):

Legend:
Caco-2 cells = assay: Permeability across Caco-2 monolayer (apical concentration by LC-MS); settings: Caco-2 monolayer
Protocol: For intestinal permeability assessments of pure SLs, Caco-2 cells were seeded in 12 mm Transwell® inserts (polyester membrane, 0.4 μm pore size, Corning Costar Corp., NY, USA) at a density of 1.0 × 10^5 cell/cm^2. Cells were allowed to grow and differentiate to a confluent monolayer for 21 days postseeding with medium change three times per week. This mimics the apical and basolateral sides of the intestinal mucosa. Before the permeability assay, cells were washed with Hank’s balanced salt solution (HBSS) (Gibco, Life Technologies, Paisley, UK), and pure SLs in HBSS were added to the apical side for 4 h at the noncytotoxic concentration of 10 μM, while the basolateral well was replaced by HBSS. The fluorescent marker fluorescein (2.7 µM) was used as control, having been submitted to the same protocol as the SLs. Cells were submitted to an orbital shaking of 125 rpm (Ohaus, Shanghai, China), and samples from the basolateral side were collected after 15 min, 30 min, and then every hour until the end of the assay, and each time the retrieved volume was replaced by fresh HBSS to maintain sink conditions. After the 4 h assay, both apical and basolateral contents were collected, the cells were washed with PBS followed by culture medium, and culture medium was added to both compartments for 24 h to assess monolayer recovery. All samples were stored at −80 °C until LC-MS analysis.
Transepithelial electrical resistance (TEER) of all monolayers was monitored before and during experiments, and 24 h after the assay, to ensure their integrity using an EVOM™ voltmeter (WPI, Berlin, Germany). Before each experiment, TEER was measured and only monolayers with a TEER value higher than 500 Ω cm^2 were used. Experiments were done in triplicate.
Ultra High Performance Liquid Chromatography (UHPLC) separations were performed with a Dionex U3000 UHPLC coupled with a U3000 Photo Diode Array (PDA) and an LTQ-Orbitrap XL Mass Spectrometry (MS) system (Thermo-Fisher Ltd., Hemel Hempstead, UK). The MS and PDA systems were tuned and calibrated according to the manufacturers recommended procedures. The UHPLC was operated under Xcalibur and Chromeleon software (Thermo-Fisher Ltd. UK). A flow rate of 300 µL/min was applied, the column and guard (Synergi C18 Hydro-RP 80 Ä, 150 × 2.0 mm, 4 µm particle size; Phenomenex Ltd. U.K.) were maintained at a temperature of 30 °C. The solvent system compositions were, A: HPLC grade water (J.T. Baker, Scientific Chemical Supplies Ltd. UK), and solvent B: HPLC grade acetonitrile (J.T. Baker, Scientific Chemical Supplies Ltd. UK), both acidified with 0.1% MS grade formic acid (Ultima, Fisher Scientific, UK). A sample injection volume of 10 µL was employed in partial-loop mode. The gradient program was as follows: hold 2% B 0–2 min, 2–5% B 2–5 min, 5–45% B 5–25 min, 45–100% B 25–35 min, hold 100% B 35–38 min, 100–2% B 38–39 min, hold 2% B 39–44 min. Autosampler syringe and line washes were performed with 2:8 HPLC grade water: acetonitrile (J.T. Baker, Scientific Chemical Supplies Ltd., UK). The HPLC column eluent was first monitored by the U3000 PDA detector where spectra were collected in wavelength/absorbance mode from 200–600 nm. Additionally, three channel set points were employed, Channel A 210 nm, Channel B 260 nm, Channel C 320 nm. Spectra were collected with a filter bandwidth of 8 nm and wavelength step of 1 nm, the scan rate was 5 Hz.
The UHPLC eluent was next transferred to a Thermo LTQ-Orbitrap XL mass spectrometry system operated under Xcalibur (Thermo-Fisher Ltd. UK). For the first two minutes of analysis the UHPLC eluent was diverted to waste, from two to 39 min the eluent was directed to the MS detector, before being diverted back to waste between 39–44 min. Mass spectra were collected in centroid mode with a primary full scan event (m/z 100–1000) at a mass resolution of 30,000 (FWHM defined at m/z 400) within the Fourier Transform (FT) detector.

calcineurin-Crz1 pathway = assay: β-Galactosidase CDRE-lacZ yeast reporter assay of Crz1 activation; format: cell-based, S. cerevisiae; settings: Saccharomyces cerevisiae
Protocol: Cultures at OD600= 0.5 ± 0.05 were diluted to OD600= 0.1 ± 0.01, transferred to 96-well microplate and challenged with the highest nontoxic concentration previously determined for each compound to investigate their putative inhibitory effect towards the calcineurin-responsive zinc finger (Crz1) activation. Measurements of β-galactosidase activity driven by the calcineurin-dependent response element (CDRE) regulated lacZ reporter gene allowed the quantitative assessment of the capacity of each compound to inhibit the activation of Crz1. FK506 (Cayman Chemicals, Ann Arbor, MI, USA) was used as a positive control at a final concentration of 12.5 μM. After 90 min of incubation with the respective compounds at 30 °C under orbital shaking, MnCl2 (Merck, Saint Louis, MO, USA) was added at a final concentration of 3 mM. After 90 min of incubation under the same conditions, OD600 of cultures were recorded, 10 μL of cell suspensions were transferred to a new 96-well plate followed by addition of 20 μL Y-PER cell lysis reagent (ThermoFisher Scientific), and the plates were incubated for 20 min at 37 °C without agitation. 240 μL of LacZ buffer (8.5 g/L Na2HPO4 (ROTH), 5.5 g/L NaH2PO4.H2O (Merck), 0.75 g/L KCl (Panreac), 0.246 g/L MgSO4.7H2O (Merck) containing […] o-nitrophenyl β-D-galactopyranoside (ONPG) (Sigma–Aldrich®—Poole, Dorset, UK) was added to each well, and plates were incubated at 30 °C for 2 h. The OD420 and OD550 were monitored using a Biotek Power Wave XS Microplate Spectrophotometer (Biotek® Instruments, Winooski, VT, USA). The results were expressed as Miller units (MU), applying the following equation, where V = volume of culture assayed in mL; t = reaction time in minutes: Miller unit = 1000 × (OD420 − 1.75 × OD550)/(t × V × OD600)(1)

Crz1-GFP = assay: Fluorescence microscopy of Crz1-GFP nuclear accumulation; format: cell-based, S. cerevisiae; settings: 3.6 µM, then 3 mM MnCl2; YAA3 cells; MnCl2 only 55.6%
Protocol: YAA3 cells were treated with 3.6 µM of 11β,13-dihydrolactucin or 12.5 µM of FK506 for 90 min, followed by incubation with or without 3 mM MnCl2 for further 90 min. On the last 10 min of incubation, 10 µg/mL of Hoechst 33,342 (Sigma) nuclear dye were added. Cells were washed and resuspended in 5 µL of 1,4-Diazabicyclo[2.2.2]octane (DABCO, triethylenediamine) DABCO solution (200 mM DABCO in 75% (v/v) glycerol, 25% (v/v) PBS) (Sigma-Aldrich). The preparations were monitored for GFP fluorescence as previously described using a Zeiss Imager Z2 (Zeiss, Germany) fluorescence microscope. Photographs were taken with an Axiocam 506 mono (Zeiss). Three images were taken and analyzed for each sample, each one containing ≈ 600 individual cells. Images were analyzed using Fiji-ImageJ 1.53f (NIH, Bethesda, MD, USA).

[1] = tested on: Crz1 target genes PMR1 and GSC2; assay: qRT-PCR of Crz1 target genes; format: cell-based, S. cerevisiae; settings: 3.6 µM, 3 mM MnCl2, qPCR
Protocol: The qRT-PCR analyses were performed as previously described. Briefly, total RNA was extracted using the RNeasy Mini kit (QIAGEN). After cleaning, 4 μg of total RNA was used for reverse-transcription with SuperScript™ II Reverse Transcriptase (Invitrogen). The qRT-PCR was performed in a QuantStudio™ 5 (Applied Biosystems), using SensiFAST™ SYBR Lo-ROX Kit (Bioline) to evaluate expression of the PMR1 (‘5-[…]-3′; 5′-[…]-3′) (GeneID: 852709), and GSC2 (5′-[…]-3′; 5′-[…]-3′) (GeneID: 852920) genes. Both ACT1 (5′-GATCATTGCTCCTCCAGAA-3′; 5′-[…]-3′) and PDA1 (5′-[…]-3′; 5′-[…]-3′) were used as reference genes. The results were expressed as relative mRNA expression levels relative to activation condition (mRNA levels a.u.) of at least three independent biological replicates ± SEM.

CC1=C2C(=O)C=C(CO)C2C2OC(=O)C(C)C2C(O)C1 (stereo not drawn) [11β,13-dihydrolactucin]
% of Decrease in SL Concentration in the Apical Side (t = 4h) (Caco-2 cells; 10 µM apical, 4 h vs t = 0 h): 8.7%
SL conjugates with cysteine in the apical side after 4 h (Caco-2 cells; LC-MS): not detected
Concentration of SL (Apical Side) t = 4 h (Caco-2 cells; SL added at 10 µM apical, after 4 h): 8.3 ± 1.4 µM
Concentration of SL (Apical Side) t = 0 h (Caco-2 cells; SL added at 10 µM apical, before experiment): 9.1 ± 1.3 µM
inhibition at 12.5 µM (calcineurin-Crz1 pathway; read-out: Calcineurin-Crz1 Inhibition (%) ± SD, 12.5 µM, MnCl2 3 mM activation, strain YAA5): 43 ± 8%
IC50 (calcineurin-Crz1 pathway; read-out: IC50 for Crz1 inhibition): 2.35 ± 1.45 µM
inhibition at 3.6 µM (calcineurin-Crz1 pathway; read-out: Inhibition of Crz1 activation (dose response assay), 3.6 µM, MnCl2 activation): ≤ 54%
Percentage of cells with nuclear Crz1-GFP (Crz1-GFP): 21%
GSC2 mRNA expression [1]: downregulated
PMR1 mRNA expression [1]: downregulated
